How the values were obtained:
[1] = system: ECHORC (Echinochloa oryzoides); assay: Flooded paddy, preemergence weed control; format: in vivo, Echinochloa oryzoides (Ard.) Fritsch.; conditions: rated 3-4 weeks after treatment, 0-9 rating scale
Method in brief: (§1)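 In this preemergence paddy assay, weed seeds or organs are sown at up to 0.5 cm in silt loam and covered by 1.5–3 cm of water for the full test period. After treatment the pots are kept in a greenhouse, and herbicidal effect is rated 0-9 visually against a control.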

[2] = system: ZEAMX (Corn, Field); assay: Postemergence herbicidal evaluation; format: in vivo, Zea mays, L.
Method in brief: (§2)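 Seedlings grown about two weeks in flats, sprayed, then kept under standard greenhouse care. Rated visually 4–5 weeks after treatment on a 0–9 scale (stand, vigour, malformation, size, chlorosis, overall appearance) relative to untreated control; repeat tests averaged.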

[3] = system: ORYSAT (Rice, Tebonnet); assay: Preemergence herbicidal evaluation; format: in vivo, Oryza sativa, (L.) Tebonnet; conditions: preemergence, rated 4-5 weeks after treatment
[4] = system: AMBEL (Ambrosia artemisifolia); assay: Postemergence herbicidal evaluation; format: in vivo, L.
Method in brief: as §2

[5] = system: CASOB (Cassia obtusifolia); assay: Postemergence herbicidal evaluation; format: in vivo, L.
Method in brief: as §2

[6] = system: CHEAL (Chenopodium album); assay: Postemergence herbicidal evaluation; format: in vivo, L.
Method in brief: as §2

[7] = system: TRZAWR (Wheat, Winter, cv Riband); assay: Preemergence herbicidal evaluation; format: in vivo, Triticum aestivum; conditions: preemergence, rated 4-5 weeks after treatment
Method in brief: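 Applied before emergence as an aqueous acetone spray over seeded soil. Read-out: 0–9 visual rating covering plant stand, vigor, size, chlorosis, malformation and overall appearance compared with control, taken 4–5 weeks after spraying.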

[8] = system: ECHCG (Echinochloa crus-galli); assay: Postemergence herbicidal evaluation; format: in vivo, (L.) Beau
Method in brief: as §2

[9] = system: ORYSAT (Rice, Tebonnet); assay: Postemergence herbicidal evaluation; format: in vivo, Oryza sativa, (L.) Tebonnet
Method in brief: as §2

[10] = system: GLXMAW (Soybean, Williams); assay: Preemergence herbicidal evaluation; format: in vivo, Glycine max, (L.) Merr. cv Williams; conditions: preemergence, rated 4-5 weeks after treatment
[11] = system: IPOHE (Ipomoea hederacea); assay: Preemergence herbicidal evaluation; format: in vivo, (L.) Jacq.; conditions: preemergence, rated 4-5 weeks after treatment
[12] = system: SAGPY (Sagittaria pygmaea); assay: Flooded paddy, preemergence weed control; format: in vivo, L.; conditions: rated 3-4 weeks after treatment, 0-9 rating scale
Method in brief: as §1

[13] = system: CYPIR (Cyperus iria); assay: Flooded paddy, preemergence weed control; format: in vivo; conditions: rated 3-4 weeks after treatment, 0-9 rating scale
Method in brief: as §1

Compound | herbicidal rating, ECHORC ([1]; rate 0.0080 kg/ha) | herbicidal rating, ECHORC ([1]; rate 0.0320 kg/ha) | herbicidal rating, ECHORC ([1]; rate 0.1250 kg/ha) | Postemergence herbicidal rating, ZEAMX ([2]; rate 0.0320 kg/ha) | Postemergence herbicidal rating, ZEAMX ([2]; rate 0.0620 kg/ha) | ORYSAT preemergence herbicidal rating ([3]; Rate 0.0620 kg/ha) | ORYSAT preemergence herbicidal rating ([3]; Rate 0.1250 kg/ha) | ORYSAT preemergence herbicidal rating ([3]; Rate 0.2500 kg/ha) | Postemergence herbicidal rating, AMBEL ([4]; rate 0.0320 kg/ha) | Postemergence herbicidal rating, AMBEL ([4]; rate 0.0620 kg/ha) | Postemergence herbicidal rating, CASOB ([5]; rate 0.0320 kg/ha) | Postemergence herbicidal rating, CASOB ([5]; rate 0.0620 kg/ha) | Postemergence herbicidal rating, CHEAL ([6]; rate 0.0320 kg/ha) | Postemergence herbicidal rating, CHEAL ([6]; rate 0.0620 kg/ha) | TRZAWR preemergence herbicidal rating ([7]; Rate 0.0620 kg/ha) | TRZAWR preemergence herbicidal rating ([7]; Rate 0.1250 kg/ha) | TRZAWR preemergence herbicidal rating ([7]; Rate 0.2500 kg/ha) | Postemergence herbicidal rating, ECHCG ([8]; rate 0.0320 kg/ha) | Postemergence herbicidal rating, ECHCG ([8]; rate 0.0620 kg/ha) | Postemergence herbicidal rating, ORYSAT ([9]; rate 0.0320 kg/ha) | other results
CC(=O)N1CCSC1c1nsc2ccc(-n3c(=O)cc(C(F)(F)F)n(C)c3=O)cc12 (stereo not drawn) [Compound 29, 3-acetyl-2-[5-[3,6-dihydro-3-methyl-2,6-dioxo-4-(trifluoromethyl)-1(2H)-pyrimidinyl]-1,2-benzisothiazol-3-yl]thiazolidine] | 0.0 | 7.0 | 9.0 | 6.0 | 6.0 | 4.0 | 5.0 | 6.5 | 9.0 | 9.0 | 2.0 | 5.0 | 9.0 | 9.0 | 2.0 | 8.0 | 8.0 | 0.0 | 2.0 | 3.0 | Postemergence herbicidal rating, ORYSAT ([9]; rate 0.0620 kg/ha): 3.0; GLXMAW preemergence herbicidal rating ([10]; Rate 0.0620 kg/ha): 6.5; GLXMAW preemergence herbicidal rating ([10]; Rate 0.1250 kg/ha): 7.0; GLXMAW preemergence herbicidal rating ([10]; Rate 0.2500 kg/ha): 9.0; IPOHE preemergence herbicidal rating ([11]; Rate 0.0620 kg/ha): 5.0; IPOHE preemergence herbicidal rating ([11]; Rate 0.1250 kg/ha): 7.5; IPOHE preemergence herbicidal rating ([11]; Rate 0.2500 kg/ha): 9.0; herbicidal rating, SAGPY ([12]; rate 0.0080 kg/ha): 0.0; herbicidal rating, SAGPY ([12]; rate 0.0320 kg/ha): 3.5; herbicidal rating, SAGPY ([12]; rate 0.1250 kg/ha): 9.0; herbicidal rating, CYPIR ([13]; rate 0.0080 kg/ha): 0.0; herbicidal rating, CYPIR ([13]; rate 0.0320 kg/ha): 7.0; herbicidal rating, CYPIR ([13]; rate 0.1250 kg/ha): 9.0
Cn1c(C(F)(F)F)cc(=O)n(-c2ccc3snc(C4SCCN4C(=O)c4ccccc4)c3c2)c1=O (stereo not drawn) [Compound 30, 3-benzoyl-2-[5-[3,6-dihydro-3-methyl-2,6-dioxo-4-(trifluoromethyl)-1(2H)-pyrimidinyl]-1,2-benzisothiazol-3-yl]thiazolidine] | 3.0 | 4.0 | 9.0 | 4.5 | 6.0 | 0.0 | 0.0 | 1.0 | 4.0 | 9.0 | 0.0 | 2.0 | 4.0 | 9.0 | 0.0 | 2.0 | 6.0 | 0.0 | 2.0 | 2.0 | Postemergence herbicidal rating, ORYSAT ([9]; rate 0.0620 kg/ha): 3.0; GLXMAW preemergence herbicidal rating ([10]; Rate 0.0620 kg/ha): 1.0; GLXMAW preemergence herbicidal rating ([10]; Rate 0.1250 kg/ha): 0.0; GLXMAW preemergence herbicidal rating ([10]; Rate 0.2500 kg/ha): 5.0; IPOHE preemergence herbicidal rating ([11]; Rate 0.0620 kg/ha): 1.5; IPOHE preemergence herbicidal rating ([11]; Rate 0.1250 kg/ha): 1.5; IPOHE preemergence herbicidal rating ([11]; Rate 0.2500 kg/ha): 6.5; herbicidal rating, SAGPY ([12]; rate 0.0080 kg/ha): 0.0; herbicidal rating, SAGPY ([12]; rate 0.0320 kg/ha): 1.0; herbicidal rating, SAGPY ([12]; rate 0.1250 kg/ha): 6.0; herbicidal rating, CYPIR ([13]; rate 0.0080 kg/ha): 0.0; herbicidal rating, CYPIR ([13]; rate 0.0320 kg/ha): 7.0; herbicidal rating, CYPIR ([13]; rate 0.1250 kg/ha): 9.0
Cn1c(C(F)(F)F)cc(=O)n(-c2ccc3snc(C4OCCS4)c3c2)c1=O (stereo not drawn) [Compound 31, 1-methyl-3-[3-(1,3-oxathiolan-2-yl)-1,2-benzisothiazol-5-yl]-6-(trifluoromethyl)uracil] | 3.0 | 8.0 | 9.0 | 5.5 | 5.5 | 4.0 | 7.7 | 8.5 | 9.0 | 9.0 | 5.0 | 8.0 | 9.0 | 9.0 | 7.0 | 8.0 | 9.0 | 2.0 | 2.0 | 3.5 | Postemergence herbicidal rating, ORYSAT ([9]; rate 0.0620 kg/ha): 5.5; GLXMAW preemergence herbicidal rating ([10]; Rate 0.0620 kg/ha): 8.5; GLXMAW preemergence herbicidal rating ([10]; Rate 0.1250 kg/ha): 7.3; GLXMAW preemergence herbicidal rating ([10]; Rate 0.2500 kg/ha): 9.0; IPOHE preemergence herbicidal rating ([11]; Rate 0.0620 kg/ha): 5.0; IPOHE preemergence herbicidal rating ([11]; Rate 0.1250 kg/ha): 9.0; IPOHE preemergence herbicidal rating ([11]; Rate 0.2500 kg/ha): 9.0; herbicidal rating, SAGPY ([12]; rate 0.0080 kg/ha): 0.0; herbicidal rating, SAGPY ([12]; rate 0.0320 kg/ha): 9.0; herbicidal rating, SAGPY ([12]; rate 0.1250 kg/ha): 9.0; herbicidal rating, CYPIR ([13]; rate 0.0080 kg/ha): 0.0; herbicidal rating, CYPIR ([13]; rate 0.0320 kg/ha): 9.0; herbicidal rating, CYPIR ([13]; rate 0.1250 kg/ha): 9.0
